Laboratory results taken from EP3046573B1, “AMYLIN ANALOGUES” (Zealand Pharma A/S, priority 2013, dated 2015).
Read-outs that look alike come from different tables or passages of the source. Numbered stars: 1 amine (or outer) side, 2 acyl side, 3 side chain; on linkers, the order of the positions; unused ones are H or OH. Bridge positions count the residues as written; N and C are the ends. Square brackets hold non-standard residues; d marks the D form. Peptide text beside a SMILES is read from it. * marks the point of attachment. C20 diacid = O=C(O)CCCCCCCCCCCCCCCCCCC(=O)*; Pro(4R-NH2) = N[C@H]1CN[C@H](C(=O)O)C1; γGlu = O=C(O)[C@H](CCC(=O)[*:2])N[*:1]; NMeI = CC[C@H](C)[C@H](NC)C(=O)O; Sar = CNCC(=O)O

What was measured:
[1] = molecular target: T1, human calcitonin receptor (hCTR2) (Homo sapiens, UniProt P30988); test: hCTR2 assay: induction of cAMP (AlphaScreen cAMP Assay kit) in COS7 cells expressing hCTR2; type: cell-based
T1 construct: expressed in transfected cells
T1 sequence (P30988 25-474): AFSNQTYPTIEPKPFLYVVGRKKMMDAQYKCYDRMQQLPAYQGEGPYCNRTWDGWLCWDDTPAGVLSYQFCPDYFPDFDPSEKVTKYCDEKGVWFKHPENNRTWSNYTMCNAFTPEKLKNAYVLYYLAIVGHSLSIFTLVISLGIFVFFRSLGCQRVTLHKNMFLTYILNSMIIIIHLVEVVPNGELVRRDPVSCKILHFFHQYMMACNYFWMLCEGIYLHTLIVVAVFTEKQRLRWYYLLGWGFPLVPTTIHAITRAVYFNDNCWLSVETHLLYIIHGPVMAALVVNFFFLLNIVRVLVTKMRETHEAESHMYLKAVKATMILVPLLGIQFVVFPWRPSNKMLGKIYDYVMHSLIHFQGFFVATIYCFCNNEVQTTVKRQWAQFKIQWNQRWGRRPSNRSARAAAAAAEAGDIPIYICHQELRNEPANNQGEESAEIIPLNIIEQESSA
Summary of the method: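 Peptide-induced cAMP in hCTR2-expressing COS7 cells, 15 min at 37° C with phosphodiesterase inhibitor IBMX (100 µM), detected by AlphaScreen; potency from 4PL curves.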

[2] = Solubility assessment (turbidity absorbance at 325 nm); type: physicochemical; settings: stock 2 mg/ml diluted 1:1, ambient temperature (typically 25°C), n=1; for Solubility, Acetate buffer pH 4: 100 mM acetate buffer pH 4.0; for Solubility, Acetate buffer pH 5: 100 mM acetate buffer pH 5.0; for Solubility, Histidine buffer pH 6: 100 mM histidine buffer pH 6.0; for Solubility, Histidine buffer pH 7: 100 mM histidine buffer pH 7.0; for Solubility, Phosphate buffer pH 6: 100 mM phosphate buffer pH 6.0; for Solubility, Phosphate buffer pH 7: 100 mM phosphate buffer pH 7.0; for Solubility, Phosphate buffer pH 7.5: 100 mM phosphate buffer pH7.5
Summary of the method: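 Turbidimetric screen across pH 4.0–7.5 in 100 mM acetate, histidine and phosphate buffers. A 2 mg/ml peptide stock (pH 2.5) was diluted 1:1 into each, then A325 measured at ambient temperature; values ≤ 0.02 AU denoted solubility of 1 mg/ml or more.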

[3] = cAMP induction in COS7 cells expressing hCTR2, average of a minimum of 3 determinations, read-out: hCTR2 EC50

Compound | EC50 [1] [nM] | Solubility, Acetate buffer pH 4 [2] | Solubility, Acetate buffer pH 5 [2] | Solubility, Histidine buffer pH 6 [2] | Solubility, Histidine buffer pH 7 [2] | Solubility, Phosphate buffer pH 6 [2] | Solubility, Phosphate buffer pH 7 [2] | Solubility, Phosphate buffer pH 7.5 [2] | EC50 [1, 3] [nM]
CC[C@H](C)[C@@H](C(=O)N[C@@H](CC(C)C)C(=O)N[C@@H](CO)C(=O)N[C@@H](CO)C(=O)N[C@H](C(=O)N[C@@H](CC(N)=O)C(=O)N[C@H](C(=O)NCC(=O)N[C@@H](CO)C(=O)N[C@@H](CC(N)=O)C(=O)N[C@H](C(=O)N1C[C@H](N)C[C@H]1C(N)=O)[C@@H](C)O)C(C)C)[C@@H](C)O)N(C)C(=O)[C@H](C)NC(=O)CN(C)C(=O)[C@H](Cc1ccccc1)NC(=O)[C@H](CC(N)=O)NC(=O)[C@H](CC(N)=O)NC(=O)[C@H](CO)NC(=O)[C@H](CO)NC(=O)[C@H](CCCNC(=N)N)NC(=O)[C@H](Cc1c[nH]cn1)NC(=O)[C@H](CC(C)C)NC(=O)[C@H](Cc1ccccc1)NC(=O)[C@H](CCC(=O)O)NC(=O)[C@H](C)NC(=O)[C@H](CC(C)C)NC(=O)[C@H](CCCNC(=N)N)NC(=O)[C@H](CCC(N)=O)NC(=O)[C@@H](NC(=O)[C@H](C)NC(=O)[C@@H]1CSSC[C@H](NC(=O)[C@H](CCCNC(=N)N)NC(=O)CC[C@H](NC(=O)CCCCCCCCCCCCCCCCCCC(=O)O)C(=O)O)C(=O)N[C@@H](CC(N)=O)C(=O)N[C@@H]([C@@H](C)O)C(=O)N[C@@H](C)C(=O)N[C@@H]([C@@H](C)O)C(=O)N1)[C@@H](C)O [Compound 110, [19CD]-isoGlu-RC()NTATC()ATQRLAEFLHRSSNNF-Gly(Me)-A-Ile(Me)-LSSTNVGSNT-Apr-NH2] ({C20 diacid-γGlu}-RCNTATCATQRLAEFLHRSSNNF[Sar]A[NMeI]LSSTNVGSNT[Pro(4R-NH2)]-NH2; disulfide 2-7) | 0.16 | SS (SS indicates solubility ≥ 1mg/ml) | SS (SS indicates solubility ≥ 1mg/ml) | SS (SS indicates solubility ≥ 1mg/ml) | SS (SS indicates solubility ≥ 1mg/ml) | II (II indicates solubility ≤ 1 mg/ml) | SS (SS indicates solubility ≥ 1mg/ml) | SS (SS indicates solubility ≥ 1mg/ml) | –
CC[C@H](C)[C@@H](C(=O)N[C@@H](CC(C)C)C(=O)N[C@@H](CO)C(=O)N[C@@H](CO)C(=O)N[C@H](C(=O)N[C@@H](CCC(=O)O)C(=O)N[C@H](C(=O)NCC(=O)N[C@@H](CO)C(=O)N[C@@H](CCC(=O)O)C(=O)N[C@H](C(=O)N1CCC[C@H]1C(N)=O)[C@@H](C)O)C(C)C)[C@@H](C)O)N(C)C(=O)[C@H](C)NC(=O)CN(C)C(=O)[C@H](Cc1ccccc1)NC(=O)[C@H](CO)NC(=O)[C@H](CO)NC(=O)[C@H](CO)NC(=O)[C@H](CO)NC(=O)[C@H](CCCNC(=N)N)NC(=O)[C@H](Cc1c[nH]cn1)NC(=O)[C@H](CC(C)C)NC(=O)[C@H](Cc1ccccc1)NC(=O)[C@H](CCC(=O)O)NC(=O)[C@H](C)NC(=O)[C@H](CC(C)C)NC(=O)[C@H](CCCNC(=N)N)NC(=O)[C@H](CC(=O)O)NC(=O)[C@@H](NC(=O)[C@H](C)NC(=O)[C@@H]1CSSC[C@H](NC(=O)[C@H](CCCNC(=N)N)NC(=O)CC[C@H](NC(=O)CCCCCCCCCCCCCCCCCCC(=O)O)C(=O)O)C(=O)N[C@@H](CC(N)=O)C(=O)N[C@@H]([C@@H](C)O)C(=O)N[C@@H](C)C(=O)N[C@@H]([C@@H](C)O)C(=O)N1)[C@@H](C)O [Compound 120, [19CD]-isoGlu-RC()NTATC()ATDRLAEFLHRSSSSF-Gly(Me)-A-Ile(Me)-LSSTEVGSETP-NH2] ({C20 diacid-γGlu}-RCNTATCATDRLAEFLHRSSSSF[Sar]A[NMeI]LSSTEVGSETP-NH2; disulfide 2-7) | – | SS (SS indicates solubility ≥ 1mg/ml) | SS (SS indicates solubility ≥ 1mg/ml) | SS (SS indicates solubility ≥ 1mg/ml) | SS (SS indicates solubility ≥ 1mg/ml) | SS (SS indicates solubility ≥ 1mg/ml) | SS (SS indicates solubility ≥ 1mg/ml) | SS (SS indicates solubility ≥ 1mg/ml) | 0.043
CC[C@H](C)[C@@H](C(=O)N[C@@H](CC(C)C)C(=O)N[C@@H](CO)C(=O)N[C@@H](CO)C(=O)N[C@H](C(=O)N[C@@H](CCC(=O)O)C(=O)N[C@H](C(=O)NCC(=O)N[C@@H](CO)C(=O)N[C@@H](CCC(=O)O)C(=O)N[C@H](C(=O)N1CCC[C@H]1C(N)=O)[C@@H](C)O)C(C)C)[C@@H](C)O)N(C)C(=O)[C@H](C)NC(=O)CN(C)C(=O)[C@H](Cc1ccccc1)NC(=O)[C@H](CO)NC(=O)[C@H](CO)NC(=O)[C@H](CO)NC(=O)[C@H](CO)NC(=O)[C@H](CCCNC(=N)N)NC(=O)[C@H](Cc1c[nH]cn1)NC(=O)[C@H](CC(C)C)NC(=O)[C@H](Cc1ccccc1)NC(=O)[C@H](CCC(=O)O)NC(=O)[C@H](C)NC(=O)[C@H](CC(C)C)NC(=O)[C@H](CCCNC(=N)N)NC(=O)[C@H](CCC(=O)O)NC(=O)[C@@H](NC(=O)[C@H](C)NC(=O)[C@@H]1CSSC[C@H](NC(=O)[C@H](CCCNC(=N)N)NC(=O)CC[C@H](NC(=O)CCCCCCCCCCCCCCCCCCC(=O)O)C(=O)O)C(=O)N[C@@H](CCC(=O)O)C(=O)N[C@@H]([C@@H](C)O)C(=O)N[C@@H](C)C(=O)N[C@@H]([C@@H](C)O)C(=O)N1)[C@@H](C)O [Compound 134, [19CD]-isoGlu-RC()ETATC()ATERLAEFLHRSSSSF-Gly(Me)-A-Ile(Me)-LSSTEVGSETP-NH2] ({C20 diacid-γGlu}-RCETATCATERLAEFLHRSSSSF[Sar]A[NMeI]LSSTEVGSETP-NH2; disulfide 2-7) | – | SS (SS indicates solubility ≥ 1mg/ml) | SS (SS indicates solubility ≥ 1mg/ml) | SS (SS indicates solubility ≥ 1mg/ml) | SS (SS indicates solubility ≥ 1mg/ml) | SS (SS indicates solubility ≥ 1mg/ml) | SS (SS indicates solubility ≥ 1mg/ml) | SS (SS indicates solubility ≥ 1mg/ml) | 0.22
CC[C@H](C)[C@@H](C(=O)N[C@@H](CC(C)C)C(=O)N[C@@H](CO)C(=O)N[C@@H](CO)C(=O)N[C@H](C(=O)N[C@@H](CCC(=O)O)C(=O)N[C@H](C(=O)NCC(=O)N[C@@H](CO)C(=O)N[C@@H](CCC(=O)O)C(=O)N[C@H](C(=O)N1CCC[C@H]1C(N)=O)[C@@H](C)O)C(C)C)[C@@H](C)O)N(C)C(=O)[C@H](C)NC(=O)CN(C)C(=O)[C@H](Cc1ccccc1)NC(=O)[C@H](CO)NC(=O)[C@H](CO)NC(=O)[C@H](CCCNC(=N)N)NC(=O)[C@H](Cc1c[nH]cn1)NC(=O)[C@H](CC(C)C)NC(=O)[C@H](Cc1ccccc1)NC(=O)[C@H](CCC(=O)O)NC(=O)[C@H](C)NC(=O)[C@H](CC(C)C)NC(=O)[C@H](CCCNC(=N)N)NC(=O)[C@H](CCC(=O)O)NC(=O)[C@@H](NC(=O)[C@H](C)NC(=O)[C@@H]1CSSC[C@H](NC(=O)[C@H](Cc2c[nH]c3ccccc23)NC(=O)CC[C@H](NC(=O)CCCCCCCCCCCCCCCCCCC(=O)O)C(=O)O)C(=O)NCC(=O)N[C@@H]([C@@H](C)O)C(=O)N[C@@H](C)C(=O)N[C@@H]([C@@H](C)O)C(=O)N1)[C@@H](C)O [Compound 161, [19CD]-isoGlu-WC()GTATC()ATERLAEFLHRSSF-Gly(Me)-A-Ile(Me)-LSSTEVGSETP-NH2] ({C20 diacid-γGlu}-WCGTATCATERLAEFLHRSSF[Sar]A[NMeI]LSSTEVGSETP-NH2; disulfide 2-7) | – | II (II indicates solubility ≤ 1 mg/ml) | SS (SS indicates solubility ≥ 1mg/ml) | SS (SS indicates solubility ≥ 1mg/ml) | SS (SS indicates solubility ≥ 1mg/ml) | SS (SS indicates solubility ≥ 1mg/ml) | SS (SS indicates solubility ≥ 1mg/ml) | SS (SS indicates solubility ≥ 1mg/ml) | 0.084
